Data set [1] deals with T1, Bile acid receptor (Mus musculus) (UniProt Q60641).
T1 sequence (whole entry): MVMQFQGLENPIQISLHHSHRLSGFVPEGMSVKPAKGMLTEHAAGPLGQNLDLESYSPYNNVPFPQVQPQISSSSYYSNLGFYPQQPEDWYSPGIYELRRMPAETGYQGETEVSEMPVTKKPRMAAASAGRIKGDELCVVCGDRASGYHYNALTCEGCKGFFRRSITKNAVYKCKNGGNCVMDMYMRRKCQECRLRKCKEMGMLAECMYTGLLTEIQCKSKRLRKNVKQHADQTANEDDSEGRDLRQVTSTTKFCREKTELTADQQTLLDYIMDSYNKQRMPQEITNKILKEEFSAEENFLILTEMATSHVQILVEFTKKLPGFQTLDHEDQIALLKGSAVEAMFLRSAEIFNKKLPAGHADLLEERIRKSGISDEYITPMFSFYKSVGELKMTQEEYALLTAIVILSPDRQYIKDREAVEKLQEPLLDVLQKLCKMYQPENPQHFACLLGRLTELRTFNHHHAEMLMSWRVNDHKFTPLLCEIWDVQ
Briefly: Agonist activity at mouse chimeric FXR assessed as receptor transactivation by luciferase transcriptional reporter gene assay relative to GW-4064. It counts as functional. Details: concentration or dose not given beside the values. (In general: A reporter such as luciferase makes a cellular process visible.)

For data set [2], the target named is T2, Bile acid receptor (Homo sapiens, UniProt Q96RI1).
T2 sequence (Q96RI1 whole entry): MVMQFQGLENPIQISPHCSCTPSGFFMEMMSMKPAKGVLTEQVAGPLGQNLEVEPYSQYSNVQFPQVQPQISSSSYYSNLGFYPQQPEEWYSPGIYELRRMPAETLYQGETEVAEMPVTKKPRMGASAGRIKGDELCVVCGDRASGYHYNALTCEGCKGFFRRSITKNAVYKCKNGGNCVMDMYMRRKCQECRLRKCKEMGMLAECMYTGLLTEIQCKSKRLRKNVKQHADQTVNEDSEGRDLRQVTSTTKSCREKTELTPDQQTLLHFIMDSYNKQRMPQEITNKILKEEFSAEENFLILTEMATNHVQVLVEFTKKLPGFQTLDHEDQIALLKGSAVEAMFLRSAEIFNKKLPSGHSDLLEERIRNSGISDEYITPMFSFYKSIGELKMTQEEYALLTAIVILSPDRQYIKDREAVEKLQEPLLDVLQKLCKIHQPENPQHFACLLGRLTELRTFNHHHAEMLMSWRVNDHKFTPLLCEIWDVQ

The target of data set [3] is T3, Bile acid receptor (Mus musculus, UniProt Q60641).
T3 sequence (Q60641 whole entry): T1 sequence (whole entry)
Briefly: Agonist activity at mouse chimeric FXR assessed as receptor transactivation by luciferase transcriptional reporter gene assay. The format is functional.

For data set [4], the target named is T2, Bile acid receptor. Kind of data set: Displacement of radioligand from human FXR by scintillation proximity assay. Background: SPA uses beads or plates that emit light when radiolabelled molecules are held near them.
In data set [5] the target is T4, Bile acid receptor (Homo sapiens) (UniProt Q96RI1).
T4 sequence (whole entry): T2 sequence (Q96RI1 whole entry)
Kind of data set: Agonist activity at chimeric FXR assessed as receptor transactivation by luciferase transcriptional reporter gene assay relative to GW-4064. The format is functional. The arrangement: concentration or dose not given beside the values.

A short description of data set [6]: Permeability by PAMPA method. It counts as ADME. The conditions noted are these: read-out: permeability. On the technique in general: PAMPA measures passive passage across an artificial lipid membrane.

Results on 12 molecules are retold here after ChEMBL document CHEMBL1138594, “Identification of an N-oxide pyridine GW4064 analog as a potent FXR agonist” (Bioorg Med Chem Lett, 2009).

As a reminder, the EC50 is the concentration that produces a half-maximal response. The IC50 is the concentration needed to halve the response being measured.

With `Cc1cc(OCc2c(-c3cc[nH]c(=O)c3Cl)noc2C(C)C)ccc1-c1ccc2c(C(=O)O)cn(C)c2c1`, the Activity in data set [1] came out at 63.3%; in data set [5], 58.5%. Besides, the results for the EC50 on Bile acid receptor [2] and at Bile acid receptor [3] were 5 µM and 7 µM, respectively. The molecule further came in with a half-maximal inhibitory concentration (IC50) at Bile acid receptor [4] of 1.1 µM.
Taken in the same sequence, the figures for `CC(C)c1onc(-c2ccc(S(C)(=O)=O)cc2Cl)c1COc1ccc(/C=C/c2cccc(C(=O)O)c2)c(Cl)c1` were 0%, 0%, more than 10 µM, more than 10 µM and 0.17 µM.
Take `Cc1cc(OCc2c(-c3c(Cl)c[n+]([O-])cc3Cl)noc2C(C)C)ccc1-c1ccc2c(C(=O)O)cn(C)c2c1`: the Activity in data set [1] was determined as 88.5%; in data set [5], 53.7%. Besides, the values for the EC50 on Bile acid receptor [2] and on Bile acid receptor [3] were 0.102 µM and 0.2 µM, respectively. Also, the Papp in data set [6] worked out at 587 ×10⁻⁶ cm/s. This molecule also displayed an IC50 at Bile acid receptor [4] of 0.045 µM.
For the molecule `COc1ccc(Cl)c(-c2noc(C(C)C)c2COc2ccc(-c3ccc4c(C(=O)O)cn(C)c4c3)c(C)c2)n1`, the Activity in data set [1] was found to be 12%; in data set [5] it was 23%. Moreover, the EC50 on Bile acid receptor [2] and on Bile acid receptor [3] was 2 µM in each case. Besides, the Papp in data set [6] amounted to 0.7 ×10⁻⁶ cm/s. The molecule further yielded an IC50 at Bile acid receptor [4] of 0.31 µM.
Consider `CC(C)c1onc(-c2c(Cl)cccc2Cl)c1COc1ccc(/C=C/c2cccc(C(=O)O)c2)c(Cl)c1`, for which the EC50 on Bile acid receptor [3] came to 2 µM. The Activity in data set [5] amounted to 100%.
Turning to `Cc1cc(OCc2c(-c3ccn(C)c(=O)c3Cl)noc2C(C)C)ccc1-c1ccc2c(C(=O)O)cn(C)c2c1`, the Activity was 17% in data set [1] and 12% in data set [5]. Further, the EC50 on Bile acid receptor [2] came out at 7 µM; on Bile acid receptor [3], 6 µM. Further, at Bile acid receptor [4], the IC50 stood at 1.72 µM.
Regarding `Cc1cc(OCc2c(-c3c(Cl)cncc3Cl)noc2C(C)C)ccc1-c1ccc2c(C(=O)O)cn(C)c2c1`, the figures for the Activity in data set [1] and in data set [5] were 71% and 38%, respectively. For the same molecule, the concentration for a half-maximal effect (EC50) at Bile acid receptor [2] is 0.9 µM; at Bile acid receptor [3], 3 µM. Also, the Papp in data set [6] stood at 0.19 ×10⁻⁶ cm/s.
Consider `CC(C)c1onc(-c2c(Cl)cncc2Cl)c1COc1ccc(/C=C/c2cccc(C(=O)O)c2)c(Cl)c1`, for which the Activity was 48% in data set [1] and 59.4% in data set [5]. Also, the EC50 on Bile acid receptor [2] was 9 µM; on Bile acid receptor [3], 11 µM. Besides, in data set [6], the Papp is 0.09 ×10⁻⁶ cm/s. The molecule also registered an IC50 at Bile acid receptor [4] of 0.69 µM.
Regarding `Cc1cc(OCc2c(-c3c(Cl)ccc(=O)n3C)noc2C(C)C)ccc1-c1ccc2c(C(=O)O)cn(C)c2c1`, the Activity in data set [1] turned out to be 39%; in data set [5] it was 27%. In addition, the EC50 at Bile acid receptor [2] and on Bile acid receptor [3] was 4 µM in each case. Further, the IC50 at Bile acid receptor [4] is 0.235 µM.
Consider `Cc1cc(OCc2c(-c3[nH]c(=O)ccc3Cl)noc2C(C)C)ccc1-c1ccc2c(C(=O)O)cn(C)c2c1`, for which the Activity was found to be 8% in data set [1] and 0% in data set [5]. In addition, the EC50 on Bile acid receptor [3] was determined as 18 µM. The molecule further registered an IC50 on Bile acid receptor [4] of 4.13 µM.
For the molecule `COc1ccccc1-c1noc(C(C)C)c1COc1ccc(/C=C/c2cccc(C(=O)O)c2)c(Cl)c1`, the Activity in data set [1] stood at 19.8%; in data set [5], 54.3%. Moreover, the EC50 at Bile acid receptor [2] and on Bile acid receptor [3] was 10 µM throughout. At Bile acid receptor [4], this molecule came in with an IC50 of 0.25 µM.
Consider `Cc1cc(OCc2c(-c3c(Cl)cn(C)c(=O)c3Cl)noc2C(C)C)ccc1-c1ccc2c(C(=O)O)cn(C)c2c1`, for which the Activity in data set [1] worked out at 15%; in data set [5], 9%. Also, the results for the EC50 at Bile acid receptor [2] and at Bile acid receptor [3] were 12 µM and 11 µM, respectively. On Bile acid receptor [4], this molecule showed an IC50 of 2.75 µM.
